Starred links: 1 amine or outer side, 2 acyl side, 3 side chain; linkers in the order of their positions; H or OH if unused. Non-standard residues stand in square brackets, D forms with d. Residues, ends and D or L forms follow the SMILES beside them. Groups on a side chain read outwards from the residue. *: point of attachment. C20 diacid = O=C(O)CCCCCCCCCCCCCCCCCCC(=O)*; C18 diacid = O=C(O)CCCCCCCCCCCCCCCCC(=O)*; γGlu = O=C(O)[C@H](CCC(=O)[*:2])N[*:1]; Palmitoyl = CCCCCCCCCCCCCCCC(=O)*; NMeI = CC[C@H](C)[C@H](NC)C(=O)O; AEEA = NCCOCCOCC(=O)O
The compounds below were run against T1, human CRHR2b (Homo sapiens, UniProt Q13324) (assay: human CRHR2b cell-based cAMP assay). Details: not given.
T1 construct: expressed in transfected cells; host or cells: Chinese Hamster Ovary (CHO) cells, transient transfection
T1 sequence (Q13324 1-438 isoform Q13324-2): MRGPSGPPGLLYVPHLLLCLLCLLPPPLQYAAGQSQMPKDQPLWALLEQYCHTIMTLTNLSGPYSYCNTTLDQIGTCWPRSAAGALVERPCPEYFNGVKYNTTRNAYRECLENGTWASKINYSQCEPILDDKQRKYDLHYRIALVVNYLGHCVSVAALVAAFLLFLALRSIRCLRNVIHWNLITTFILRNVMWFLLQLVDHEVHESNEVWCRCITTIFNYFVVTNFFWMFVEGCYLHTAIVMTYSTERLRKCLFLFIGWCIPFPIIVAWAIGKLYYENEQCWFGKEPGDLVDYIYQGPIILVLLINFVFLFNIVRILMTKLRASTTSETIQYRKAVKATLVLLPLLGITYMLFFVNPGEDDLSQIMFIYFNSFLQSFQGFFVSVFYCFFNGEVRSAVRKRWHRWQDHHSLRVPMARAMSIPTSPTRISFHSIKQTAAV
How it was run: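 ED50 values are means ± SEM over several runs, curve-fitted from cAMP in pmol, calibrated against unlabeled-cAMP standards. Detection was HTRF competition, ratio 665/620 nm, after 30 min agonist exposure at 37 °C.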

Compared with `CC[C@H](C)[C@H](N)C(=O)N[C@H](C(=O)N[C@@H](CC(C)C)C(=O)N[C@@H](CO)C(=O)N[C@@H](CC(C)C)C(=O)N[C@@H](CC(=O)O)C(=O)N[C@H](C(=O)N1CCC[C@H]1C(=O)N[C@H](C(=O)NCC(=O)N[C@@H](CC(C)C)C(=O)N[C@@H](CC(C)C)C(=O)N[C@@H](CCC(N)=O)C(=O)N[C@H](C(=O)N[C@@H](CC(C)C)C(=O)N[C@@H](CC(C)C)C(=O)N[C@@H](CCCCNC(=O)COCCOCCNC(=O)COCCOCCNC(=O)CC[C@H](NC(=O)CC[C@H](NC(=O)CCCCCCCCCCCCCCCCC(=O)O)C(=O)O)C(=O)O)C(=O)N[C@@H](CCC(N)=O)C(=O)N[C@@H](CCC(=O)O)C(=O)N[C@@H](CCCCN)C(=O)N[C@@H](CCC(N)=O)C(=O)N[C@@H](CCC(=O)O)C(=O)N[C@@H](CCCCN)C(=O)N[C@@H](CCC(=O)O)C(=O)N[C@@H](CCCCN)C(=O)N[C@@H](CCC(N)=O)C(=O)N[C@@H](CCC(N)=O)C(=O)N[C@@H](C)C(=O)N[C@H](C(=O)N[C@H](C(=O)N[C@@H](CC(N)=O)C(=O)N[C@@H](C)C(=O)N[C@@H](CCC(N)=O)C(=O)N[C@H](C(=O)N[C@@H](CC(C)C)C(=O)N[C@@H](C)C(=O)N[C@@H](CCC(N)=O)C(=O)N[C@H](C(N)=O)C(C)C)[C@@H](C)CC)[C@@H](C)O)[C@@H](C)O)[C@@H](C)CC)[C@@H](C)CC)C(C)C)C(C)C` [Compound 50] (H-IVLSLDVPIGLLQILLK([AEEA-AEEA-γGlu-γGlu-C18 diacid])QEKQEKEKQQATTNAQILAQV-NH2), `CCCCCCCCCCCCCCCC(=O)N[C@@H](CCC(=O)NCCCC[C@H](NC(=O)[C@H](CC(C)C)NC(=O)[C@H](CC(C)C)NC(=O)[C@@H](NC(=O)[C@H](CCC(N)=O)NC(=O)[C@H](CC(C)C)NC(=O)[C@H](CC(C)C)NC(=O)CNC(=O)[C@@H](NC(=O)[C@@H]1CCCN1C(=O)[C@@H](NC(=O)[C@H](CC(=O)O)NC(=O)[C@H](CC(C)C)NC(=O)[C@H](CO)NC(=O)[C@H](CC(C)C)NC(=O)[C@@H](NC(=O)[C@@H](N)[C@@H](C)CC)C(C)C)C(C)C)[C@@H](C)CC)[C@@H](C)CC)C(=O)N[C@@H](CCC(N)=O)C(=O)N[C@@H](CCC(=O)O)C(=O)N[C@@H](CCCCN)C(=O)N[C@@H](CCC(N)=O)C(=O)N[C@@H](CCC(=O)O)C(=O)N[C@@H](CCCCN)C(=O)N[C@@H](CCC(=O)O)C(=O)N[C@@H](CCCCN)C(=O)N[C@@H](CCC(N)=O)C(=O)N[C@@H](CCC(N)=O)C(=O)N[C@@H](C)C(=O)N[C@H](C(=O)N[C@H](C(=O)N[C@@H](CC(N)=O)C(=O)N[C@@H](C)C(=O)N[C@@H](CCCNC(=N)N)C(=O)N[C@H](C(=O)N[C@@H](CC(C)C)C(=O)N[C@@H](C)C(=O)N[C@@H](CCCNC(=N)N)C(=O)N[C@H](C(N)=O)C(C)C)[C@@H](C)CC)[C@@H](C)O)[C@@H](C)O)C(=O)O` [Compound 23] (H-IVLSLDVPIGLLQILLK([γGlu-Palmitoyl])QEKQEKEKQQATTNARILARV-NH2) is 5-fold higher in EC50: 3.56 nM for the first, 17.9 nM for the second. The first is the more potent here.

Same assay, conditions: cAMP assay; Table 26, compounds of Example 9; read-out: hCRHR2b Average EC50

Compared with `CCCCCCCCCCCCCCCC(=O)N[C@@H](CCC(=O)NCCCC[C@H](NC(=O)[C@H](CCCCN)NC(=O)[C@H](CCC(=O)O)NC(=O)[C@H](CCCCN)NC(=O)[C@H](CCC(=O)O)NC(=O)[C@H](CCC(N)=O)NC(=O)[C@H](CCCCN)NC(=O)[C@H](CCC(=O)O)NC(=O)[C@H](CCC(N)=O)NC(=O)[C@H](CCC(=O)O)NC(=O)[C@H](CC(C)C)NC(=O)[C@H](CC(C)C)NC(=O)[C@@H](NC(=O)[C@H](CCC(N)=O)NC(=O)[C@H](CC(C)C)NC(=O)[C@H](CC(C)C)NC(=O)CNC(=O)[C@@H](NC(=O)[C@@H]1CCCN1C(=O)[C@@H](NC(=O)[C@H](CC(=O)O)NC(=O)[C@H](CC(C)C)NC(=O)[C@H](CO)NC(=O)[C@H](CC(C)C)NC(=O)[C@@H](NC(=O)[C@@H](N)[C@@H](C)CC)C(C)C)C(C)C)[C@@H](C)CC)[C@@H](C)CC)C(=O)N[C@@H](CCC(N)=O)C(=O)N[C@@H](C)C(=O)N[C@H](C(=O)N[C@H](C(=O)N[C@@H](CC(N)=O)C(=O)N[C@@H](C)C(=O)N[C@@H](CCCNC(=N)N)C(=O)N[C@H](C(=O)N[C@@H](CC(C)C)C(=O)N[C@@H](C)C(=O)N[C@@H](CCCNC(=N)N)C(=O)N[C@H](C(N)=O)C(C)C)[C@@H](C)CC)[C@@H](C)O)[C@@H](C)O)C(=O)O` [Compound 33] (H-IVLSLDVPIGLLQILLEQEKQEKEKK([γGlu-Palmitoyl])QATTNARILARV-NH2), `CC[C@H](C)[C@H](N)C(=O)N[C@H](C(=O)N[C@@H](CC(C)C)C(=O)N[C@@H](CO)C(=O)N[C@@H](CC(C)C)C(=O)N[C@@H](CC(=O)O)C(=O)N[C@H](C(=O)N1CCC[C@H]1C(=O)N[C@H](C(=O)NCC(=O)N[C@@H](CC(C)C)C(=O)N[C@@H](CC(C)C)C(=O)N[C@@H](CCC(N)=O)C(=O)N[C@H](C(=O)N[C@@H](CC(C)C)C(=O)N[C@@H](CC(C)C)C(=O)N[C@@H](CCC(=O)O)C(=O)N[C@@H](CCC(N)=O)C(=O)N[C@@H](CCC(=O)O)C(=O)N[C@@H](CCCCN)C(=O)N[C@@H](CCCCNC(=O)COCCOCCNC(=O)COCCOCCNC(=O)CC[C@H](NC(=O)CC[C@H](NC(=O)CCCCCCCCCCCCCCCCC(=O)O)C(=O)O)C(=O)O)C(=O)N[C@@H](CCC(=O)O)C(=O)N[C@@H](CCCCN)C(=O)N[C@@H](CCC(=O)O)C(=O)N[C@@H](CCCCN)C(=O)N[C@@H](CCC(N)=O)C(=O)N[C@@H](CCC(N)=O)C(=O)N[C@@H](C)C(=O)N[C@H](C(=O)N[C@H](C(=O)N[C@@H](CC(N)=O)C(=O)N[C@@H](C)C(=O)N[C@@H](CCC(N)=O)C(=O)N[C@H](C(=O)N[C@@H](CC(C)C)C(=O)N[C@@H](C)C(=O)N[C@@H](Cc1c[nH]cn1)C(=O)N[C@H](C(N)=O)C(C)C)[C@@H](C)CC)[C@@H](C)O)[C@@H](C)O)[C@@H](C)CC)[C@@H](C)CC)C(C)C)C(C)C` [Compound 45] (H-IVLSLDVPIGLLQILLEQEKK([AEEA-AEEA-γGlu-γGlu-C18 diacid])EKEKQQATTNAQILAHV-NH2) is 3.2-fold higher in EC50: 8.68 nM for the first, 27.7 nM for the second.

First: CC[C@H](C)[C@H](NC)C(=O)N[C@H](C(=O)N[C@@H](CC(C)C)C(=O)N[C@@H](CO)C(=O)N[C@@H](CC(C)C)C(=O)N[C@@H](CC(=O)O)C(=O)N[C@H](C(=O)N1CCC[C@H]1C(=O)N[C@H](C(=O)NCC(=O)N[C@@H](CC(C)C)C(=O)N[C@@H](CC(C)C)C(=O)N[C@@H](CCC(N)=O)C(=O)N[C@H](C(=O)N[C@@H](CC(C)C)C(=O)N[C@@H](CC(C)C)C(=O)N[C@@H](CCC(=O)O)C(=O)N[C@@H](CCC(N)=O)C(=O)N[C@@H](CCC(=O)O)C(=O)N[C@@H](CCCCN)C(=O)N[C@@H](CCC(N)=O)C(=O)N[C@@H](CCC(=O)O)C(=O)N[C@@H](CCCCN)C(=O)N[C@@H](CCC(=O)O)C(=O)N[C@@H](CCCCN)C(=O)N[C@@H](CCC(N)=O)C(=O)N[C@@H](CCC(N)=O)C(=O)N[C@@H](C)C(=O)N[C@@H](CCCCNC(=O)CC[C@H](NC(=O)CC[C@H](NC(=O)COCCOCCNC(=O)CC[C@H](NC(=O)CC[C@H](NC(=O)CCCCCCCCCCCCCCCCCCC(=O)O)C(=O)O)C(=O)O)C(=O)O)C(=O)O)C(=O)N[C@H](C(=O)N[C@@H](CC(N)=O)C(=O)N[C@@H](C)C(=O)N[C@@H](CCC(N)=O)C(=O)N[C@H](C(=O)N[C@@H](CC(C)C)C(=O)N[C@@H](C)C(=O)N[C@@H](CCC(N)=O)C(=O)N[C@H](C(N)=O)C(C)C)[C@@H](C)CC)[C@@H](C)O)[C@@H](C)CC)[C@@H](C)CC)C(C)C)C(C)C [Compound 63] (H-[NMeI]VLSLDVPIGLLQILLEQEKQEKEKQQAK([γGlu-γGlu-AEEA-γGlu-γGlu-C20 diacid])TNAQILAQV-NH2)
Second: CC[C@H](C)[C@H](N)C(=O)N[C@H](C(=O)N[C@@H](CC(C)C)C(=O)N[C@@H](CO)C(=O)N[C@@H](CC(C)C)C(=O)N[C@@H](CC(=O)O)C(=O)N[C@H](C(=O)N1CCC[C@H]1C(=O)N[C@H](C(=O)NCC(=O)N[C@@H](CC(C)C)C(=O)N[C@@H](CC(C)C)C(=O)N[C@@H](CCC(N)=O)C(=O)N[C@H](C(=O)N[C@@H](CC(C)C)C(=O)N[C@@H](CC(C)C)C(=O)N[C@@H](CCC(=O)O)C(=O)N[C@@H](CCC(N)=O)C(=O)N[C@@H](CCC(=O)O)C(=O)N[C@@H](CCCCN)C(=O)N[C@@H](CCC(N)=O)C(=O)N[C@@H](CCC(=O)O)C(=O)N[C@@H](CCCCN)C(=O)N[C@@H](CCC(=O)O)C(=O)N[C@@H](CCCCN)C(=O)N[C@@H](CCCCNC(=O)COCCOCCNC(=O)COCCOCCNC(=O)CC[C@H](NC(=O)CC[C@H](NC(=O)CCCCCCCCCCCCCCCCC(=O)O)C(=O)O)C(=O)O)C(=O)N[C@@H](CCC(N)=O)C(=O)N[C@@H](C)C(=O)N[C@H](C(=O)N[C@@H](CCC(=O)O)C(=O)N[C@@H](CC(N)=O)C(=O)N[C@@H](C)C(=O)N[C@@H](CCC(N)=O)C(=O)N[C@H](C(=O)N[C@@H](CC(C)C)C(=O)N[C@@H](C)C(=O)N[C@@H](CCC(N)=O)C(=O)N[C@H](C(N)=O)C(C)C)[C@@H](C)CC)[C@@H](C)O)[C@@H](C)CC)[C@@H](C)CC)C(C)C)C(C)C [Compound 54] (H-IVLSLDVPIGLLQILLEQEKQEKEKK([AEEA-AEEA-γGlu-γGlu-C18 diacid])QATENAQILAQV-NH2)
The EC50 of the first is 3.3-fold lower: 1.3 nM for the first, 4.26 nM for the second. The first is the more potent here.

Reference: patent US10894817B2, “Fatty acid modified urocortin-2 analogs for the treatment of diabetes and chronic kidney disease” (priority 2016, dated 2021)
